According to patent US20030190364A1, “Biological affinity based delivery systems” (priority 2002, published 2003):
pKd: −log10 of the molar value. Read-outs that look alike come from different tables or passages of the source. Where no end group is shown, it is not given here. [ ]: non-standard residue; d: D form. The star is where a group is joined. FITC = O=C1OC2(c3ccc(O)cc3Oc3cc(O)ccc32)c2ccc(NC(=S)*)cc21; Dansyl = CN(C)c1cccc2c(S(=O)(=O)*)cccc12; βAla = NCCC(=O)O

Assays:
[1] = Relative affinity to heparin of synthesized peptides (Table 2); format: binding; details: corresponds to the bold-faced amino acids of the sequence
[2] = Heparin affinity column, NaCl concentration required for elution; format: binding; details: 50 mM sodium phosphate pH 7.5, gradient 0 to 2 M NaCl over 20 column volumes
Method: For purposes of the present invention, conditions for determining the affinity of the PB polypeptides (and/or the therapeutic agent) for heparin are as follows: The polypeptide is solubilized in 50 mM sodium phosphate buffer, pH 7.5 to a final concentration of 0.5 mg/ml. 1 mg of the polypeptide is loaded onto an Amersham Biosciences HiPrep 16/10 Heparin FF column (or suitable equivalent) at a flow rate of 5 ml/min at 25° C. After loading the polypeptide, a salt gradient is introduced to the column by increasing the sodium chloride content of the buffer from 0 to 2 M NaCl over 20 column volumes. The recorded NaCl concentration required for elution is determined by correlating the maximum absorbance value at 280 and/or 215 nm for each spectrum to the value of the gradient at that time point.
FIG. 4 is a chart depicting the relative heparin affinity of various heparin-binding peptides. Each peptide was solubilized in 50 mM sodium phosphate buffer, pH 7.5 to a final concentration of 0.5 mg/ml. Then, 1 mg of each peptide was loaded onto an Amersham Biosciences HiPrep 16/10 Heparin FF column at a flow rate of 5 ml/min. After loading the peptide, a salt gradient was introduced to the column by increasing the sodium chloride content of the buffer from 0 to 2 M NaCl over 20 column volumes. The recorded NaCl concentration required for elution was determined by correlating the maximum absorbance value at 280 and/or 215 nm for each spectrum to the value of the gradient at that time point.

[3] = cited from earlier work
[4] = Dissociation constant (KD) of peptides from heparin, literature values; format: binding; details: PBD3 versus PBD2
[5] = references [1], [2], read-out: Affinity to Heparin (KD)

Row | Substance | NaCl Elution Conc. [2] | further results
1 | AAFAKLAARLYRKAGC [HBD-low] |  | Relative Affinity to Heparin [1]: 14.3%
2 | AKLNCRLYRKANKSSKL [PBD8] | 481.2 mM | 
3 | Dansyl-GYGRKKRRQRRR [Dansyl-TAT] | 727.6 mM | 
4 | FITC-A(β)AAFAKLAARLYRKAGC ({FITC}-[βAla]AAFAKLAARLYRKAGC) [PBD2] | 354.8 mM | pKd [3, 5]: 6.43
5 | FITC-A(β)GGGGYGRKKRRQRRR ({FITC}-[βAla]GGGGYGRKKRRQRRR) [TAT, reference compound] |  | pKd ([3]; low molecular weight heparin and heparin to which only one molecule of TAT is bound (Rusnati, 1999), read-out: KD, dissociation constant for TAT from heparin): ~6.15; pKd [3, 5]: 7.52; Relative Affinity to Heparin [1]: 170%
6 | FITC-A(β)KAFAALAARLYRKAGC ({FITC}-[βAla]KAFAALAARLYRKAGC) [PBD3, PBD3 control is the same peptide tested without heparin] | 313.0 mM | pKd [3, 5]: 6.18; dissociation constant relative to that of PBD2 [4]: 1.8 times
7 | FITC-A(β)KAFAKLAARLYRKAGC ({FITC}-[βAla]KAFAKLAARLYRKAGC) [FITC-PBD1] | 438.8 mM | 
8 | FITC-A(β)YGRKKRRQRRR (AYGRKKRRQRRR; N-terminal FITC-beta-alanine) [FITC-TAT] | 703.6 mM | 
9 | KAFAKLAARLYRKAGC [HBD-high] |  | Relative Affinity to Heparin [1]: 100%
10 | KAFAKLAARLYRKAGC [PBD1-A] | 325.0 mM | 
11 | WKA(β)FAKLNCRLYRKA (WK[βAla]FAKLNCRLYRKA) [PBD7] | 422.6 mM | 
12 | dansyl-GKAFAKLAARLYRKAGC (Dansyl-GKAFAKLAARLYRKAGC) [PBD1] | 685.9 mM | 
